{"source": "patent US11535632B2", "about": "“Solid forms of an S1P-receptor modulator” (ESCAPE Bio, Inc., priority 2019, dated 2022)", "format_in_all_cases": "physicochemical", "key": {"[1]": {"experiment": "Solubility and metastable zone width by Crystal 16", "conditions": "for metastable zone width: 0.5° C./min", "description": "A Crystal 16 crystallization system (Technobis, NL) was used to determine the solubility and metastable zone of the material as a function of temperature. Slurries of the API, in different overall concentrations, were prepared by adding a known amount of solid to a known amount of chilled solvent (between 0.5 and 1.5 ml) and stirred at 350 rpm using a magnetic bar. The saturation temperature was measured through cycles of heating and cooling from 20 to 90° C. at 0.5° C./min.\nUpon increasing the temperature, the solid completely dissolved and the suspension became a clear solution such that the light transmission reached its maximum value. This temperature was assigned as the clear point, which was assumed to coincide with the saturation temperature. Then, by cooling the solution at a rate of 0.5° C./min, the temperature at which particles first formed was detected by a decrease in the light transmission. This was assigned as the cloud point. The points were fitted by a Van′t Hoff equation and the difference between the cloud and the clear points defined the metastable zone width (MSZW) of the system. The instrument control software was Crystallization Systems and the data were analyzed using Crystal Clear and Microsoft Excel.\nThe solubility of compound 1 (various masses) in DMAC and DMSO (1 ml) was analyzed on the Crystal 16 (between 25-90° C. for DMSO and 0-90° C. for DMAC). A heating/cooling rate of 0.5° C./min and a stirring rate of 300 rpm was used for all samples. The resulting turbidity/temperature plots were analyzed to obtain solubility curves and determine the metastable zone width. Any precipitated solids were isolated by filtration and analyzed by XRPD."}, "Water activity study": {"experiment": "Water activity study", "conditions": "4 days, start Form A + Form B", "description": "About 15 mg of Form A and 15 mg of Form B were added to the saturated solutions of different water activities and equilibrated at 25° C. and 50° C. for 4 days, respectively. The resulting suspensions were filtered, and the solid parts (wet cake) were investigated by XRPD to determine the polymorph.\nAccording to XRPD results, Form B was obtained in methanol/water with water activity (a.w.) ranging from 0.1 to 0.9 at 25° C., as shown in FIGS. 20A-20B. At 50° C., Form B was obtained in methanol/water with a.w. ≥0.2, whereas a mixture of Form A and Form B was obtained in a.w. […] The water activity of the binary solvent system was calculated based on UNIFAC method (UNIQUAC Functional-group Activity Coefficients)."}, "[2]": {"experiment": "Competitive slurries of Form B and C in process relevant solvents", "conditions": "72 hours, start Form B + C", "description": "Determination of the relative stabilities of Form B and Form C was undertaken to identify which material was more thermodynamically stable in process relevant solvents. As a suspected solvate was isolated from experiments where DMAC was used as a solvent, only DMSO and acetic acid were determined to be appropriate process solvents. Combinations of these solvents with relevant antisolvents were therefore selected for the competitive slurry experiments.\nCompound 1 (from Example 2) was dispensed into HPLC vials. To these, 1 ml of selected solvents was subsequently added to give a suspension. Materials were slurried for 72 hours at 90° C., 50° C. or 25° C. with 500 rpm stirring. Material was subsequently isolated by centrifugation and analyzed by XRPD."}}, "data": [{"smiles": "O=C(O)[C@H]1C[C@@H](N2CCc3oc(-c4ccc(OCc5ccc(Cl)cc5)cc4)nc3C2)C1", "note": "[Compound 1, (1s,3s)-3-(2-(4-((4-chlorobenzyl)oxy)phenyl)-6,7-dihydrooxazolo[4,5-c]pyridin-5(4H)-yl)cyclobutane-1-carboxylic acid]", "values": [{"measurement": "metastable zone width", "setting": "[1]; DMAC, 0-90° C.", "result": "ca. 30 °C"}, {"measurement": "metastable zone width", "setting": "[1]; DMSO, 25-90° C.", "result": "ca. 30 °C"}, {"measurement": "solubility", "setting": "[1]; neat acetic acid", "result": "very high solubility"}, {"measurement": "XRPD of solid after equilibration", "setting": "Water activity study; Methanol/water (20:80, v/v) a.w. = 0.9, 25° C.", "result": "Form B"}, {"measurement": "XRPD of solid after equilibration", "setting": "Water activity study; Methanol/water (20:80, v/v) a.w. = 0.9, 50° C.", "result": "Form B"}, {"measurement": "XRPD of solid after equilibration", "setting": "Water activity study; Methanol/water (57:43, v/v) a.w. = 0.7, 25° C.", "result": "Form B"}, {"measurement": "XRPD of solid after equilibration", "setting": "Water activity study; Methanol/water (57:43, v/v) a.w. = 0.7, 50° C.", "result": "Form B"}, {"measurement": "XRPD of solid after equilibration", "setting": "Water activity study; Methanol/water (69:31, v/v) a.w. = 0.6, 25° C.", "result": "Form B"}, {"measurement": "XRPD of solid after equilibration", "setting": "Water activity study; Methanol/water (69:31, v/v) a.w. = 0.6, 50° C.", "result": "Form B"}, {"measurement": "XRPD of solid after equilibration", "setting": "Water activity study; Methanol/water (77:23, v/v) a.w. = 0.5, 25° C.", "result": "Form B"}, {"measurement": "XRPD of solid after equilibration", "setting": "Water activity study; Methanol/water (77:23, v/v) a.w. = 0.5, 50° C.", "result": "Form B"}, {"measurement": "XRPD of solid after equilibration", "setting": "Water activity study; Methanol/water (84:16, v/v) a.w. = 0.4, 25° C.", "result": "Form B"}, {"measurement": "XRPD of solid after equilibration", "setting": "Water activity study; Methanol/water (84:16, v/v) a.w. = 0.4, 50° C.", "result": "Form B"}, {"measurement": "XRPD of solid after equilibration", "setting": "Water activity study; Methanol/water (89:11, v/v) a.w. = 0.3, 25° C.", "result": "Form B"}, {"measurement": "XRPD of solid after equilibration", "setting": "Water activity study; Methanol/water (89:11, v/v) a.w. = 0.3, 50° C.", "result": "Form B"}, {"measurement": "XRPD of solid after equilibration", "setting": "Water activity study; Methanol/water (93:7, v/v) a.w. = 0.2, 25° C.", "result": "Form B"}, {"measurement": "XRPD of solid after equilibration", "setting": "Water activity study; Methanol/water (93:7, v/v) a.w. = 0.2, 50° C.", "result": "Form B"}, {"measurement": "XRPD of solid after equilibration", "setting": "Water activity study; Methanol/water (97:3, v/v) a.w. = 0.1, 25° C.", "result": "Form B"}, {"measurement": "XRPD of solid after equilibration", "setting": "Water activity study; Methanol/water (97:3, v/v) a.w. = 0.1, 50° C.", "result": "Form A + B"}, {"measurement": "XRPD analysis after slurrying", "setting": "[2]; Acetic acid:H2O (1:1), 25° C.", "result": "Form B"}, {"measurement": "XRPD analysis after slurrying", "setting": "[2]; Acetic acid:H2O (1:1), 50° C.", "result": "Form B"}, {"measurement": "XRPD analysis after slurrying", "setting": "[2]; Acetic acid:H2O (1:1), 90° C.", "result": "Form B"}, {"measurement": "XRPD analysis after slurrying", "setting": "[2]; Acetic acid:MeCN (1:3), 25° C.", "result": "Form B"}, {"measurement": "XRPD analysis after slurrying", "setting": "[2]; Acetic acid:MeCN (1:3), 50° C.", "result": "Form B"}, {"measurement": "XRPD analysis after slurrying", "setting": "[2]; Acetic acid:MeCN (1:3), 90° C.", "result": "Form B"}, {"measurement": "XRPD analysis after slurrying", "setting": "[2]; DMSO, 25° C.", "result": "Form B"}, {"measurement": "XRPD analysis after slurrying", "setting": "[2]; DMSO, 50° C.", "result": "Poorly crystalline"}, {"measurement": "XRPD analysis after slurrying", "setting": "[2]; DMSO, 90° C.", "result": "poorly crystalline Form A"}, {"measurement": "XRPD analysis after slurrying", "setting": "[2]; DMSO:H2O (1:1), 25° C.", "result": "Form B"}, {"measurement": "XRPD analysis after slurrying", "setting": "[2]; DMSO:H2O (1:1), 50° C.", "result": "Form B"}, {"measurement": "XRPD analysis after slurrying", "setting": "[2]; DMSO:H2O (1:1), 90° C.", "result": "Form B"}]}, {"smiles": "O=C(O)[C@H]1C[C@@H](N2CCc3oc(-c4ccc(OCc5ccc(Cl)cc5)cc4)nc3C2)C1", "note": "[Form D, (1s,3s)-3-(2-(4-((4-chlorobenzyl)oxy)phenyl)-6,7-dihydrooxazolo[4,5-c]pyridin-5(4H)-yl)cyclobutane-1-carboxylic acid]", "values": [{"measurement": "Form change upon drying (XRPD)", "setting": "[1]; damp material isolated from DMAC, dried", "result": "converted to Form C"}]}]}
